Read-outs that look alike come from different tables or passages of the source. One block for each compound: values may come before it.
Experiments:
GSK3β = GSK3β (Homo sapiens, UniProt P49841); test: GSK3β radiolabelled kinase assay (% residual activity, IC50, ATP competition); assay type: biochemical; details: at 10 μM compound
[1] = tested on: NO production in LPS-activated BV-2 cells; test: NO production assay (Griess) in LPS-activated BV-2 cells; assay type: cell-based, murine; details: read-out: NO Inhibition IC50
Protocol: (§1) 3-(4,5-dimethylthiazol-2-yl)-2,5-diphenyl-tetrazolium bromide (MTT) assay was performed to evaluate the cytotoxicity of the samples to the microglia. BV2 cells at the density of 4 × 10^4 cells /well were seeded in the 96 well plate and incubated for 24 h. Seeded cells were pre-treated with different concentration of the samples, and LPS (100 ng/ml) activation was performed after 30 min of compound treatment. Treated plate were incubated for 24 h in the incubator and nitric oxide assay and cell viability assay was performed. Treated cell’s conditioned medium was used to evaluate the NO assay, and the attached cells were used to evaluate the cell viability assay. 50 µL of conditioned medium (CM) from treated cells were transferred to a new 96 well plate for NO assay. This CM was mixed with the equal volume of the mixture of Gries reagent ((1% sulfanilamide and 0.1% N-1-napthylethylenediamine dihydrochloride). NaNO2 was used as standard and the colorimetric change were evidenced by measuring its OD at 540 nm in a microplate reader. The cells in the plate were incubated for 1 h with MTT solution making it the final concentration of […]. Blue stained cells were incubated with 200 ul of DMSO and the solution get changed to purple/formazan color and it was observed by measuring the absorbance at 570 nm in a microplate reader.NG-mono-methyl-L-arginine (L-NMMA), a well-known nitric oxide synthase (NOS) inhibitor, was used as a positive control.

BV-2 cells = test: MTT cell viability assay; assay type: cell-based, murine; details: 5 μM compound, % of LPS, mean ± SD
Protocol: as §1

MTT cell viability assay = assay type: cell-based, murine; details: mouse, BV-2 microglia cells (LPS-activated), mean ± SD
Protocol: as §1

iNOS = test: Western blot of iNOS in LPS-induced BV-2 cells; assay type: cell-based, murine; details: 0.01 to 1 uM, LPS-induced BV-2 cells
Protocol: (§2) Western blot analysis was performed to see the protein expression of the iNOS and COX-2 in the BV2 cells. BV2 cells were seeded in a 6 well plate at the density of 6 × 10^5 cells/well overnight and cells were treated as mentioned earlier in the cell treatment section and this time treatment was performed for 6 h only. After 6 h, cells were harvested and lysed with lysis buffer containing (RIPA, protease inhibitor & phosphatase inhibitor), protein estimation was performed using biorad assay and the 30 µg of total protein was separated by 8% SDS-PAGE gel electrophoresis, transferred to nitrocellulose membranes, and incubated with primary antibodies against tubulin, iNOS, COX-2, and α-tubulin. […] membranes were incubated with horseradish peroxidase-conjugated secondary antibodies, and protein bands were visualized using ECL Western Blotting Detection Reagents (Amersham Pharmacia Biotech). Quantitative analysis of the protein bands was quantified using Image Master 2D Elite software (version 3.1, Amersham Pharmacia Biotech).

COX-2 = test: Western blot of COX-2 in LPS-induced BV-2 cells; assay type: cell-based, murine; details: 0.01 to 1 uM
Protocol: as §2

EIF2AK1 = target: T1, EIF2AK1 (Homo sapiens, UniProt Q9BQI3); test: Kinase panel assay (radiolabelled); assay type: biochemical; details: control GSK-2606414
T1 construct: purchased Reaction Biology Corp
Protocol: (§3) Every inhibitory activity of tested compounds was measured by radiolabelled method of Reaction Biology Corp). The radiolabelled ATP ([γ-^33P] ATP) replaced a substrate with ^33P-phosphorylated substrate so that the activity of a kinase was measured from the radiolabelled phosphorylated substrate. Kinase panel assay was tested at 30 μM testing compounds with an ATP concentration of 10 μM and a substrate concentration of 10 μM. % Residual activity against GSK3β was measured at 10 uM compounds 1 and 2. […] Curve fits of control compounds were performed where the enzyme activities at the highest concentration of compounds were less than 65%. The concentration of DMSO was controlled and raw data, % kinase activity was calculated relative to DMSO controls.

PDK1/PDHK1 = target: T2, PDK1/PDHK1 (Homo sapiens, UniProt Q15118); test: Kinase panel assay (radiolabelled); assay type: biochemical; details: control GW5074
T2 construct: purchased Reaction Biology Corp
Protocol: as §3

PDK2/PDHK2 = target: T3, PDK2/PDHK2 (Homo sapiens, UniProt Q15119); test: Kinase panel assay (radiolabelled); assay type: biochemical; details: control GW5074
T3 construct: purchased Reaction Biology Corp
Protocol: as §3

PDK3/PDHK3 = target: T4, PDK3/PDHK3 (Homo sapiens, UniProt Q15120); test: Kinase panel assay (radiolabelled); assay type: biochemical; details: control GW5074
T4 construct: purchased Reaction Biology Corp
Protocol: as §3

PDK4/PDHK4 = target: T5, PDK4/PDHK4 (Homo sapiens, UniProt Q16654); test: Kinase panel assay (radiolabelled); assay type: biochemical; details: control GW5074
T5 construct: purchased Reaction Biology Corp
Protocol: as §3

TRPM7/CHAK1 = target: T6, TRPM7/CHAK1 (Homo sapiens, UniProt Q96QT4); test: Kinase panel assay (radiolabelled); assay type: biochemical; details: control NH125
T6 construct: purchased Reaction Biology Corp
Protocol: as §3

PI3KC2A = target: T7, PI3KC2A (Homo sapiens, UniProt O00443); test: Kinase panel assay (lipid kinase); assay type: biochemical; details: read-out: IC50 (M) of Control (+)
T7 construct: purchased Reaction Biology Corp
Protocol: as §3

PI3KC3 = target: T8, PI3KC3 (Homo sapiens, UniProt Q8NEB9); test: Kinase panel assay (lipid kinase); assay type: biochemical; details: control PIK-93
T8 construct: purchased Reaction Biology Corp
Protocol: as §3

PI4K2A = target: T9, PI4K2A (Homo sapiens, UniProt Q9BTU6); test: Kinase panel assay (lipid kinase); assay type: biochemical; details: control PIK-93
T9 construct: purchased Reaction Biology Corp
Protocol: as §3

PIP5K1A = target: T10, PIP5K1A (Homo sapiens, UniProt Q99755); test: Kinase panel assay (lipid kinase); assay type: biochemical; details: control PIK-93
T10 construct: purchased Reaction Biology Corp
Protocol: as §3

PIP5K1C = target: T11, PIP5K1C (Homo sapiens, UniProt O60331); test: Kinase panel assay (lipid kinase); assay type: biochemical; details: control PIK-93
T11 construct: purchased Reaction Biology Corp
Protocol: as §3

Chain of GSK3β (P49841 whole entry): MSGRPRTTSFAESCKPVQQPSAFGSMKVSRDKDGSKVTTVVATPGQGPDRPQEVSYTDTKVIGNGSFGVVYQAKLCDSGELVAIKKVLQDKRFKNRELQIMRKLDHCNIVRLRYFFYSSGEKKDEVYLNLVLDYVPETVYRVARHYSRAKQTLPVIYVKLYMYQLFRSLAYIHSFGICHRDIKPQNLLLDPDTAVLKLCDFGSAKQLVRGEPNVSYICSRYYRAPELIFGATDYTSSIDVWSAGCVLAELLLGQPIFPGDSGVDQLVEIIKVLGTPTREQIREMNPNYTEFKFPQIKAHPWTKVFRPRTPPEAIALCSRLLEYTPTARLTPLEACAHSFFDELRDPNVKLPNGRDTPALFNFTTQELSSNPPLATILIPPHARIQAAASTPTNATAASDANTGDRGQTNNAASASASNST
T8 sequence (Q8NEB9 whole entry): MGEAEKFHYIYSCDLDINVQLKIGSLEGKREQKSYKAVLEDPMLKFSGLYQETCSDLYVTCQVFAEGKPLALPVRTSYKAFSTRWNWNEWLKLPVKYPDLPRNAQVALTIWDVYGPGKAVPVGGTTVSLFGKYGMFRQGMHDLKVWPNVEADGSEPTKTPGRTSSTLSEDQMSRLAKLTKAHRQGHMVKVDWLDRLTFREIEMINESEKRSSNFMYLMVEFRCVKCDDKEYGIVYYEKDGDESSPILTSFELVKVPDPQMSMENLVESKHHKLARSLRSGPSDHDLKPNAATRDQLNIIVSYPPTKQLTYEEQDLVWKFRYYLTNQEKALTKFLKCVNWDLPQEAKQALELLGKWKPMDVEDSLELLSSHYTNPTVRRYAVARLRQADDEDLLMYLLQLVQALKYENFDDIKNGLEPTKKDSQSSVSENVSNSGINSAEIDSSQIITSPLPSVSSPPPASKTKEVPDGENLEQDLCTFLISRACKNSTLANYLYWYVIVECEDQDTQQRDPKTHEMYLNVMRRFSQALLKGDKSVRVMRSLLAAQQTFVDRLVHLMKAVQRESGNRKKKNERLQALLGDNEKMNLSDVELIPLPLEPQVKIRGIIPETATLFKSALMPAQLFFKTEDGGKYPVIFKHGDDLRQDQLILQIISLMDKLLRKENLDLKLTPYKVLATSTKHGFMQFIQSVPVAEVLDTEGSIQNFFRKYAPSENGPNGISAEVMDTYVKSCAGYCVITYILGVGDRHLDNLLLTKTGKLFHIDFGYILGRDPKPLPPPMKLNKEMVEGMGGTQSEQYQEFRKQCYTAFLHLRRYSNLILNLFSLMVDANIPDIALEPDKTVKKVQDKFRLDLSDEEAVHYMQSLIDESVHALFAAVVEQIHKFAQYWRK
T10 sequence (Q99755 whole entry): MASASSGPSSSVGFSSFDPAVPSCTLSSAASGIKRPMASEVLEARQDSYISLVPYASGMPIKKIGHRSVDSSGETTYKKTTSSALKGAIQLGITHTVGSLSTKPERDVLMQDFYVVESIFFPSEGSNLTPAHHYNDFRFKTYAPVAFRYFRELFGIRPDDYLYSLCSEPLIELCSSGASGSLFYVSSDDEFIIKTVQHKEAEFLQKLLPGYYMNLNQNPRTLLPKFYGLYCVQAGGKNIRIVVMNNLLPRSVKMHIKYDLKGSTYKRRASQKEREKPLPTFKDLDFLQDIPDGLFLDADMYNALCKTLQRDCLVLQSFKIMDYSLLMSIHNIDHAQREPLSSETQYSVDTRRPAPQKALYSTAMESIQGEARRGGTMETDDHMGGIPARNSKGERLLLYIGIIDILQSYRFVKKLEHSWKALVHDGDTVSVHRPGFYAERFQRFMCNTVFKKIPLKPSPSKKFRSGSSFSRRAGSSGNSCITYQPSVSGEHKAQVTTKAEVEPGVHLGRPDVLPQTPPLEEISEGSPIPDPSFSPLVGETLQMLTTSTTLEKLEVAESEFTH
T1 sequence (Q9BQI3 whole entry): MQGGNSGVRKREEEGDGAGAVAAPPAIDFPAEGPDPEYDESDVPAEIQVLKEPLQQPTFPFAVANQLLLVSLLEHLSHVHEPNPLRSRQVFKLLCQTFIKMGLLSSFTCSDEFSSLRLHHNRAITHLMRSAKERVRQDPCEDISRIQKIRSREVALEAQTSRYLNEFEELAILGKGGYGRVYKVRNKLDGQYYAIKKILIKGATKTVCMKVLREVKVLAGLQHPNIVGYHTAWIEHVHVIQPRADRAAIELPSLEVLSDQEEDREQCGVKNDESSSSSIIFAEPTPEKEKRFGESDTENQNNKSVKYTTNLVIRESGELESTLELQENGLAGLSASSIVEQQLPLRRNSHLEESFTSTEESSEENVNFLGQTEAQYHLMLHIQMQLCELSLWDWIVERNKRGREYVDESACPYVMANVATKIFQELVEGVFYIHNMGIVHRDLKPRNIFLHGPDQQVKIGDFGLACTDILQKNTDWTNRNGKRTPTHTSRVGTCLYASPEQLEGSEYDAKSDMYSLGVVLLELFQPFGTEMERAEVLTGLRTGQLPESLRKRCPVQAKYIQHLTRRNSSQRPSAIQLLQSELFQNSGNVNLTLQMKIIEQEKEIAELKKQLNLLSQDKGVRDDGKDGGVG
T9 sequence (Q9BTU6 whole entry): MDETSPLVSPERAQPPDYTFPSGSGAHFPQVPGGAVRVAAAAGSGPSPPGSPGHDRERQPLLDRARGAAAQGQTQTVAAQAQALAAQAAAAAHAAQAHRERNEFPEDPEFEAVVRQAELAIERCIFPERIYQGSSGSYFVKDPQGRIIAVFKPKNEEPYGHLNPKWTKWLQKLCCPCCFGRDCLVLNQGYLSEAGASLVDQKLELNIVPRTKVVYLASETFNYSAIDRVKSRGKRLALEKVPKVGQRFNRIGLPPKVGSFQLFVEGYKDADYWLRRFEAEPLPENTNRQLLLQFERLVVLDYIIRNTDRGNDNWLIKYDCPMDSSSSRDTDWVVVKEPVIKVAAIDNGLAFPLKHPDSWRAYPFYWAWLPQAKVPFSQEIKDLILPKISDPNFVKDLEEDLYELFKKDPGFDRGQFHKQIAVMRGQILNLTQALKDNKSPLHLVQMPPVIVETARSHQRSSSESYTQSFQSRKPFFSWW
T6 sequence (Q96QT4 whole entry): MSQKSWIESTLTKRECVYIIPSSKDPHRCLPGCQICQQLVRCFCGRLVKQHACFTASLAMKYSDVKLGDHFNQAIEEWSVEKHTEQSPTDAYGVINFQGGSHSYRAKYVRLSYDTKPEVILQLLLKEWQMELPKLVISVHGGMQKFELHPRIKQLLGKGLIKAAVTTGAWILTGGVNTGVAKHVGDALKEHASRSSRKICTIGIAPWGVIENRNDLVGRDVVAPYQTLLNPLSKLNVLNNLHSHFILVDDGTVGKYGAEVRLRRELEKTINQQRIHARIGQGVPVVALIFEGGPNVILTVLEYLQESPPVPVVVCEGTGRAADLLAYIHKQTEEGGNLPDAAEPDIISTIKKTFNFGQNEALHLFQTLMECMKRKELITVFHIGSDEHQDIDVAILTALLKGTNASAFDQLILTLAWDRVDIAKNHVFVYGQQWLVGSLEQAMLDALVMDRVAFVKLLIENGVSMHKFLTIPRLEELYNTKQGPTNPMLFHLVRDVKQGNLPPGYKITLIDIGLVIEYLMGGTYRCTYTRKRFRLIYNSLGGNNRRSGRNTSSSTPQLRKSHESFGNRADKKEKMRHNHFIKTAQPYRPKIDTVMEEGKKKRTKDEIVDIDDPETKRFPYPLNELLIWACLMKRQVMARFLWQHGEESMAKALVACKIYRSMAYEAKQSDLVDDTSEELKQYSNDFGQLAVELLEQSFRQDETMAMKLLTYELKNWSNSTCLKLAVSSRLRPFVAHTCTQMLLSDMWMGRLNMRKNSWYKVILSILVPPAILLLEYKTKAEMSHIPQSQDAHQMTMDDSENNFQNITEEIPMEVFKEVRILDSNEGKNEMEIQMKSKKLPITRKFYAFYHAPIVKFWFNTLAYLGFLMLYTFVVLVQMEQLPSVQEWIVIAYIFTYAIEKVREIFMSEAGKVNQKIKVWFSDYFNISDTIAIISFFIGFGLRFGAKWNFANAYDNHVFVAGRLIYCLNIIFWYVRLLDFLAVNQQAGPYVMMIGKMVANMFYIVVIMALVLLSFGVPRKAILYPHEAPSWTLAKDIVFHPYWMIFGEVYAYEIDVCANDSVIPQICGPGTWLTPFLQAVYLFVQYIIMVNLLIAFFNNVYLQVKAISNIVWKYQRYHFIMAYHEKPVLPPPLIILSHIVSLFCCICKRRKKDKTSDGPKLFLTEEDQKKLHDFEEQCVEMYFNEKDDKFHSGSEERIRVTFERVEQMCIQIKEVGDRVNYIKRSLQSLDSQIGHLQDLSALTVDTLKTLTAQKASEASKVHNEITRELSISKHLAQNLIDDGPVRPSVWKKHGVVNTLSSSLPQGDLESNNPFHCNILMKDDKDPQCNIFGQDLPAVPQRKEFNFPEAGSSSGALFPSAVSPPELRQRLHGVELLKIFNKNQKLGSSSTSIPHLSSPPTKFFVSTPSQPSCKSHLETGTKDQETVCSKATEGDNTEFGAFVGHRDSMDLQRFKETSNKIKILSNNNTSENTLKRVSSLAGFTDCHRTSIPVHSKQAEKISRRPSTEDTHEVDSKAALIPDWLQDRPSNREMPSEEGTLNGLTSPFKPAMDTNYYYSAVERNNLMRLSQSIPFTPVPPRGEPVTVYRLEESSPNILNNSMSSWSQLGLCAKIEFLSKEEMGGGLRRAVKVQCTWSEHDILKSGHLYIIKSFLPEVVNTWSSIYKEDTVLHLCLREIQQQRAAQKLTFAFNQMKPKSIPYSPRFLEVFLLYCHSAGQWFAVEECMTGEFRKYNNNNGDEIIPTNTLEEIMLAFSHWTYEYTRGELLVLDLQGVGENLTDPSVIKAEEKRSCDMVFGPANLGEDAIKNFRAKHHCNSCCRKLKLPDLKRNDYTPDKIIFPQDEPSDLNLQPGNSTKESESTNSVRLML

Compound: O=C1C=CC2(C=C1)OCC(Cc1ccccc1CS(=O)(=O)c1ccccc1)C(=O)N2c1ccccc1 (centres unmarked) [1b]
- % GSK3β Residual Activity (GSK3β): 91.0 ± 12.6%
- IC50 [1]: 0.98 ± 0.03 µM
- Cell Viability (%) (BV-2 cells): 84 ± 3%

Compound: O=C1C=CC2(C=C1)OCC(Cc1cn(-c3ccccc3)nn1)C(=O)N2c1ccccc1 (centres unmarked) [2a, 5-Phenyl-3-((1-phenyl-1H-1,2,3-triazol-4-yl)methyl)-1-oxa-5-azaspiro[5.5]undeca-7,10-diene-4,9-dione]
- remaining activity at 10 µM (GSK3β): 62.3 ± 2.3%
- IC50 ([1]; Mus musculus): 0.67 ± 0.05 µM
- viability at 24 h, 1 µM (MTT cell viability assay; 1 μM compound): 92.9 ± 0.24%
- viability at 24 h, 5 µM (MTT cell viability assay; 5 μM compound, % of LPS): 81 ± 3%
- iNOS expression level (iNOS): limited potency and efficacy
- COX-2 expression level (COX-2): limited potency and efficacy

Compound: Cn1cc(-c2ccc3c(c2)CCN3C(=O)Cc2cccc(C(F)(F)F)c2)c2c(N)ncnc21 [GSK-2606414, reference compound]
- IC50 (EIF2AK1): 0.106 µM

Compound: CC(=O)Nc1nc(C)c(-c2ccc(Cl)c(S(=O)(=O)NCCO)c2)s1 [PIK-93, reference compound]
- IC50 (PI3KC3): 0.0757 µM
- IC50 (PI4K2A): 18.5 µM
- IC50 (PIP5K1A): 61.8 µM
- IC50 (PIP5K1C): 17.5 µM

Continued, values first:

- IC50 (PDK1/PDHK1): 12.1 µM
- IC50 (PDK2/PDHK2): 3.28 µM
- IC50 (PDK3/PDHK3): 1.82 µM
- IC50 (PDK4/PDHK4): 2.12 µM
Compound: O=C1Nc2ccc(I)cc2/C1=C/c1cc(Br)c(O)c(Br)c1 [GW5074, reference compound]

- IC50 (TRPM7/CHAK1): 5.86 µM
Compound: CCCCCCCCCCCCCCCCn1cc[n+](Cc2ccccc2)c1C [NH125, reference compound]

- IC50 (PI3KC2A): 4.8e-07 M
Compound: Oc1cccc(-c2nc(N3CCOCC3)c3oc4ncccc4c3n2)c1 [PI-103, reference compound]
